Laboratory results reported in publication PMC4814829, “Design, synthesis, crystallization and biological evaluation of new symmetrical biscationic compounds as selective inhibitors of human Choline Kinase α1 (ChoKα1)” (Scientific Reports, 2016).

Key:
[1] = system: PBL (+Pha); test: Antiproliferative assay in non-tumoral cells (MTT); format: cell-based; conditions: Homo sapiens, non-tumoral cells stimulated with phytohematoagglutinin, 72 h, mean ± SEM
Method: (§1) Peripheral mononuclear cells (PBMC) from healthy donors were obtained by separation on Lymphoprep (Fresenius KABI Norge AS) gradient. After extensive washing, cells were resuspended (1 × 10^6 cells/mL) in RPMI-1640 with 10% fetal bovine serum and incubated overnight. For cytotoxicity evaluations in proliferating PBL cultures, non-adherent cells were resuspended at 5 × 10^5 cells/mL in growth medium, containing 2.5 μg/mL PHA (Irvine Scientific). Different concentrations of the test compounds were added, and viability was determined 72 h later by the MTT test. For cytotoxicity evaluations in resting PBL cultures, non-adherent cells were resuspended (5 × 10^5 cells/mL) and treated for 72 h with the test compounds, as described above.

[2] = system: PBL (resting); test: Antiproliferative assay in non-tumoral cells (MTT); format: cell-based; conditions: Homo sapiens, 72 h, mean ± SEM
Method: as §1

[3] = target: T1, human ChoKα1 (Homo sapiens, UniProt P35790); test: Tryptophan fluorescence quenching; format: binding; conditions: mean ± S.D. of at least three independent experiments; 25 °C, enzyme 1 μM; read-out: HsChoKα1 Kd
T1 construct: made in house
Method: All compounds were prepared in 100% DMSO. Their Kds against human ChoKα1 were measured by monitoring the quenching of tryptophan fluorescence. All experiments were performed in a Cary Eclipse spectrofluorometer (Varian) at 25 °C with the enzymes at 1 μM, and concentrations of compounds varying from 0.1 to 5 μM for ChoKα1 in 25 mM Tris, 150 mM NaCl, pH 7.5. Fluorescence emission spectra were recorded in the 300–400 nm range with an excitation wavelength of 280 nm, with slit width of 5 nm. Controls were determined by incubating the enzymes with equivalent amounts of DMSO. As indicated previously, data analysis was performed in Prism (GraphPad software) considering a model with a single binding site (Eq. 1), where F0 is the intrinsic fluorescence of the enzyme in the absence of quencher (Q), F1 is the observed fluorescence at a given quencher concentration, fa is the fractional degree of fluorescence, and Kd is the dissociation constant.

[4] = system: Human fibroblasts; test: Antiproliferative assay in non-tumoral cells; format: cell-based; conditions: Fibroblast, mean ± SEM
Text: Human fibroblasts from foreskin were isolated as previously described[58] and maintained in DMEM medium with 10% fetal bovine serum added.

[5] = system: HUVEC; test: Antiproliferative assay in non-tumoral cells; format: cell-based; conditions: Homo sapiens, mean ± SEM
Method: Human Umbilical Vein Endothelial cells (HUVEC), were prepared from human umbilical-cord veins, as previously described. The adherent cells were maintained in M200 medium added by LSGS (low serum growth supplement), containing FBS, hydrocortisone, hEGF, bFGF, heparin, gentamycin/amphotericin (Life Technologies, Monza, Italy). Once confluent, the cells were detached by trypsin–EDTA solution and used in experiments from the first to sixth passages.

[6] = target: purified human ChoKα1 (Homo sapiens, UniProt P35790); test: Determination of human choline kinase α1 activity ([methyl-14C]choline incorporation into phosphocholine); format: biochemical; conditions: mean ± SEM, three independent experiments; read-out: IC50 ChoKα1 purified
Method: The effect of the different inhibitors on human choline kinase (ChoK) was assayed in ChoKα1 purified as previously described[32]. In each experiment DMSO-assays were always run in parallel as a control. DMSO in no case exceeded a concentration of 0.1% in order to avoid unspecific ChoK inhibition. ChoK activity was assayed by measuring the rate of incorporation of ^14C from [methyl-^14C]choline into phosphocholine both in the presence or absence of different inhibitor concentrations. Briefly, the final reaction mixture contained 100 mM Tris (pH 8.5), 10 mM MgCl2, and 10 mM ATP, and 20 ng of purified ChoKα1. […] The assay was stopped by immersing the reaction tubes in boiling water for 3 min. Aliquots of the reaction mixture were applied to the origin of Silica Gel plates in the presence of phosphocholine (0.1 mg) and choline (0.1 mg) as carriers. The chromatography was developed in methanol/0.6% NaCl/28% NH4OH in water (50:50:5, v/v/v) as solvent. Phosphocholine was visualized under exposure to iodine vapor and the corresponding spot was scraped and transferred to scintillation vials for measurement of radioactivity by a Beckman 6000-TA (Madrid, Spain) liquid-scintillation counter. At least three experiments were performed in all assays.

[7] = system: MDA-MB-231 cells; test: Antiproliferative MTT assay; format: cell-based; conditions: Homo sapiens, 72 h, mean ± SEM
Method: (§2) Human T-cell leukemia (Jurkat), human B-cell leukemia (RS 4,11) and human promyelocytic leukemia (HL-60) cells were grown in RPMI-1640 medium (Gibco, Milan, Italy). Breast adenocarcinoma (MCF-7 and MDA-MB-231), human non-small cell lung carcinoma (A549), human cervix carcinoma (HeLa), human prostate adenocarcinoma (PC-3), and human colon adenocarcinoma (HT-29) cells were grown in DMEM medium (Gibco, Milan, Italy). Both media were supplemented with 115 units/mL of penicillin G (Gibco, Milan, Italy), 115 μg/mL of streptomycin (Invitrogen, Milan, Italy) and 10% fetal bovine serum (Invitrogen, Milan, Italy). Stock solutions (10 mM) of the different compounds were obtained by dissolving them in DMSO. Individual wells of 96-well tissue-culture microtiter plates were inoculated with 100 μL of complete medium containing 8 × 10^3 cells. The plates were incubated at 37 °C in a humidified 5% CO2 incubator for 18 h prior to the experiments. After medium removal, 100 μL of fresh medium containing the test compound at different concentrations was added to each well and incubated at 37 °C for 72 h. The percentage of DMSO in the medium in no case exceeded 0.25%.

[8] = system: MCF-7 cells; test: Antiproliferative MTT assay; format: cell-based; conditions: Homo sapiens, MCF7, 72 h, mean ± SEM
Method: as §2

[9] = system: RS4,11 cells; test: Antiproliferative MTT assay; format: cell-based; conditions: Homo sapiens, 72 h, mean ± SEM
Method: as §2

[10] = system: HL-60 cells; test: Antiproliferative MTT assay; format: cell-based; conditions: Homo sapiens, 72 h, mean ± SEM
Method: as §2

[11] = system: A549 cells; test: Antiproliferative MTT assay; format: cell-based; conditions: Homo sapiens, 72 h, mean ± SEM
Method: as §2

[12] = system: HT-29 cells; test: Antiproliferative MTT assay; format: cell-based; conditions: Homo sapiens, 72 h, mean ± SEM
Method: as §2

[13] = system: PC-3 cells; test: Antiproliferative MTT assay; format: cell-based; conditions: Homo sapiens, 72 h, mean ± SEM
Method: as §2

[14] = system: Jurkat cells; test: Antiproliferative MTT assay; format: cell-based; conditions: Homo sapiens, 72 h, mean ± SEM
Method: as §2

[15] = system: HeLa cells; test: Antiproliferative MTT assay; format: cell-based; conditions: Homo sapiens, 72 h, mean ± SEM
Method: as §2

[16] = Solubility in crystallization mother liquor (crystal soaking); format: physicochemical; conditions: 20% PEG 3350, 0.25 M potassium isothiocyanate, 10% DMSO, compound 50 mM
Method: ChoKα1 at 20 mg/ml in buffer 25 mM Tris/HCl, 150 mM NaCl pH 7.5 was used as the protein solution. The sitting-drop vapor-diffusion method was used to produce apo-crystals by mixing 0.5 μl of the protein solution and an equal volume of mother liquor (crystals appeared in 20% polyethylene glycol [PEG] 3350 and 0.25 M potassium isothiocyanate). Tetragonal crystals (space group P43212) grew within in 3–4 days and were soaked in 2 μL of the mother liquor with 0.2 μL of a dilution 500 mM of compounds 10a, 10g, 10h, 10k, and 10l in DMSO (DMSO was at 10% final concentration in the mix whereas compounds were at 50 mM) for two days. Only crystals soaked with compound 10a contained the compound. The crystals used in this study were cryoprotected in mother-liquor solutions containing 20% ethylenglycol and frozen in a nitrogen gas stream cooled to 100 K.

[17] = system: breast- and colon-cancer cells; design: method as in earlier work; conditions: 15 μM; ref 15 (Sanchez-Lopez et al.); cited from earlier work
[18] = system: MDA-MB-231 cells; test: Cell-cycle distribution analysis (PI, flow cytometry); format: cell-based, human; conditions: MDA-MB-231
Method: [The source words this procedure for another cell line and reports this cell line under the same test.] For flow-cytometric analysis of the DNA content, 5 × 10^5 HeLa or Jurkat cells in exponential growth were treated with different concentrations of the test compounds for 24 and 48 h. After the incubation period, the cells were collected, centrifuged, and fixed with ice-cold ethanol (70%). The cells were then treated with lysis buffer containing RNAse A and 0.1% Triton X-100, and then stained with propidium iodide (PI). Samples were analyzed in a Cytomics FC500 flow cytometer (Beckman Coulter). DNA histograms were analyzed using MultiCycle for Windows (Phoenix Flow Systems).

[19] = system: mice; conditions: mouse, in vivo; cited from earlier work
[20] = system: MDA-MB-231 cells; test: Annexin-V/PI assay; format: cell-based, human; conditions: MDA-MB-231, 72 h; positive controls Cis-Pt 50 μM, Etoposide 5 μM
Method: (§3) Surface exposure of PS on apoptotic cells was measured by flow cytometry with Cytomics FC500 (Beckman Coulter) by adding simultaneously annexin-V conjugated to fluorescein isothiocyanate (FITC) and PI to cells according to the manufacturer′s instructions (Annexin-V Fluos, Roche Diagnostic).

[21] = system: MCF-7 cells; test: Annexin-V/PI assay; format: cell-based, human; conditions: MCF-7, 72 h; positive controls Cis-Pt 50 μM, Etoposide 5 μM
Method: as §3

[22] = system: Jurkat cells; test: Annexin-V/PI assay; format: cell-based, human; conditions: 72 h, positive controls Cis-Pt 50 μM, Etoposide 5 μM
Method: as §3

Sequence of purified human ChoKα1 (P35790 whole entry): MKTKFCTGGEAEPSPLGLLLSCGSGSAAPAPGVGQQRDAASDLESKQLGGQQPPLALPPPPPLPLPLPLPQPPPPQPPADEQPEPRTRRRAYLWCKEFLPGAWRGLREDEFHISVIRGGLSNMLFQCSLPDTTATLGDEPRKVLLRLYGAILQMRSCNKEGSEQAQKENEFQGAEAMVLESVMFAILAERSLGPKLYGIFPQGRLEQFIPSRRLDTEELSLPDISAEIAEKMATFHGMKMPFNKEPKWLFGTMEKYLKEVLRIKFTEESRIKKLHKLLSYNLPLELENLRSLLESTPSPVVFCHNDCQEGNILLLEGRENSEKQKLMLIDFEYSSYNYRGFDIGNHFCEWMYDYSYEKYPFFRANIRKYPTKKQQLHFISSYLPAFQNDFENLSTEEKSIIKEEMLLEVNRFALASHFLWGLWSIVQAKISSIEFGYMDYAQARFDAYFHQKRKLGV
T1 sequence (P35790 whole entry): as above

SMILES	GI50 [1] [nM]	GI50 [2] [nM]	Kd [3] [nM]	GI50 [4] [nM]	GI50 [5] [nM]	IC50 [6] [nM]	GI50 [7] [nM]	GI50 [8] [nM]	GI50 [9] [nM]	GI50 [10] [nM]	GI50 [11] [nM]	GI50 [12] [nM]	GI50 [13] [nM]	GI50 [14] [nM]	GI50 [15] [nM]	Cell-cycle effect (G1 phase) [17]	Cells with hypodiploid DNA content (apoptotic cells by cell-cycle analysis) [18]	Apoptotic cells (annexin-V/PI) [20]	Apoptotic cells (annexin-V/PI) [21]	Apoptotic cells (annexin-V/PI) [22]	other results
Clc1ccc2c(N3CCCC3)cc[n+](Cc3ccc(OCCOc4ccc(C[n+]5ccc(N6CCCC6)c6ccc(Cl)cc65)cc4)cc3)c2c1.[Br-].[Br-] [Compound 10l, 1,1′-(((ethane-1,2-diylbis(oxy))bis(4,1-phenylene))bis(methylene))bis(7-chloro-4-(pyrrolidin-1-yl)quinolinium) bromide]	490 ± 150	3800 ± 550	357 ± 39	9600 ± 1300	11400 ± 5900	920 ± 10	50 ± 20	22 ± 7	420 ± 140	160 ± 70	140 ± 60	560 ± 210	800 ± 200	7 ± 3	370 ± 180	–	–	–	–	–	Solubility in the mother liquor [16]: insoluble in the mother liquor
CN(c1ccc(Cl)cc1)c1cc[n+](Cc2ccc(-c3ccc(C[n+]4ccc(N(C)c5ccc(Cl)cc5)c5ccccc54)cc3)cc2)c2ccccc12 [RSM932A, reference compound]	230 ± 50	1100 ± 90	–	–	460 ± 47	–	170 ± 50	180 ± 100	170 ± 40	930 ± 100	450 ± 90	400 ± 200	–	410 ± 100	830 ± 100	significant decrease of the G1 phase	negligible percentage of apoptotic cells	–	–	–	Toxicity profile and tolerability [19]: low-toxicity profile with improved tolerability
COc1cc([C@@H]2c3cc4c(cc3[C@@H](O[C@@H]3O[C@@H]5CO[C@@H](C)O[C@H]5[C@H](O)[C@H]3O)[C@H]3COC(=O)[C@H]23)OCO4)cc(OC)c1O [Etoposide]	–	–	–	–	–	–	–	–	–	–	–	–	–	–	–	–	–	induce significant apoptosis	induce significant apoptosis	induce significant apoptosis	–
CN(C)c1cc[n+](Cc2ccc(CCCCc3ccc(C[n+]4ccc(N(C)C)cc4)cc3)cc2)cc1 [MN58b, reference compound]	150 ± 50	2000 ± 400	–	–	2100 ± 580	–	310 ± 120	1800 ± 60	1000 ± 300	320 ± 30	540 ± 200	1900 ± 400	–	350 ± 100	1900 ± 100	significant decrease of the G1 phase	negligible percentage of apoptotic cells	–	–	–	–
CN(c1ccc(Cl)cc1)c1cc[n+](Cc2ccc(OCCOc3ccc(C[n+]4ccc(N(C)c5ccc(Cl)cc5)c5ccccc54)cc3)cc2)c2ccccc12.[Br-].[Br-] [Compound 10g, 1,1′-(((ethane-1,2-diylbis(oxy))bis(4,1-phenylene))bis(methylene))bis(4-((4-chlorophenyl)(methyl)amino)quinolinium) bromide]	550 ± 110	980 ± 250	517 ± 99	7400 ± 2400	10400 ± 3500	3270 ± 660	190 ± 9	460 ± 63	150 ± 40	710 ± 240	110 ± 18	750 ± 120	260 ± 10	98 ± 31	250 ± 60	–	–	–	–	–	melting point: 178 to 180 °C
N.N.[Cl][Pt][Cl] [Cis-Pt]	–	–	–	–	–	–	–	–	–	–	–	–	–	–	–	–	–	induce significant apoptosis	induce significant apoptosis	induce significant apoptosis	–
